Measured values published in patent publication US20030113379A1, “Biodegradable composite matrix for enhancing angiogenesis and method for producing the same” (INDUSTRIAL TECHNOLOGY RESEARCH INSTITUTE, priority 2001, published 2003).
Entries after “also recorded” stand apart in the source; their conditions may differ.

System: mouse
Test: Angiogenesis in mice after subcutaneous injection of hydrogel composite matrix (HE-stained tissue sections)
Assay type: in vivo
Conditions: mice sacrificed 15 days after subcutaneous injection of the hydrogel; rank order against PBS control
Experimental: S-1-P was dissolved in methanol and the solution was poured into a round bottom flask. S-1-P was then dried and spread onto the inner wall of the flask by decompression distillation. PBS was added into the flask followed by rapid freezing using liquid nitrogen. The mixture was then sonicated under room temperature to melt the S-1-P from the inner wall and form micelles. The resulting S-1-P micelles were mixed with chitin hydrogel and bFGF to give a composite matrix. The composite matrix was introduced into the mouse via subcutaneous injection.
The mice were sacrificed 15 days after injecting the hydrogel. The implanted tissues were obtained, fixed, embedded, sectioned, stained, and observed under a 200 times microscope. The sizes and conditions of the blood vessels of the sections were observed. […] The arrows indicate the blood vessels. FIG. 2 is the average numbers of blood vessels of the tissue sections. It is shown that blood vessel number of the sections is bFGF/S-1-P>bFGF>PBS, which is in consistent with results shown in FIG. 1.

bFGF: protein growth factor (fibroblast growth factor) used alone as the comparison sample
average numbers of blood vessels of the tissue sections (FIG. 2): larger than the PBS sample; also recorded: bFGF>PBS
